Source: US20260297070A1, “CYCLIC [COMPOUND LEFT OUT] WRN INHIBITORS” (Nimbus Wadjet, Inc., priority 2023, published 2026)

biological target: T1, human Werner helicase (WRN-BV08, Uniprot Q14191, amino acids 517-1235 with L1074F point mutation) (Homo sapiens, UniProt Q14191, L1074F); test: WRN (BV08) ADP-Glo Assay; format: biochemical; settings: 0.15 nM WRN, 5 μM ATP, 0.1 nM DNA duplex, 15 min preincubation, 60 min at 25° C., pH 7.5, 1% DMSO; read-out: ADP-Glo_hWRN_IC50
T1 construct: Uniprot Q14191, amino acids 517-1235 with L1074F point mutation; TEV-cleavable 8×His (C, cleaved yes); made in house; host or cells: Sf9 insect cells (baculovirus)
T1 sequence (Q14191 with tags, fused parts or gaps L1074F limits assumed): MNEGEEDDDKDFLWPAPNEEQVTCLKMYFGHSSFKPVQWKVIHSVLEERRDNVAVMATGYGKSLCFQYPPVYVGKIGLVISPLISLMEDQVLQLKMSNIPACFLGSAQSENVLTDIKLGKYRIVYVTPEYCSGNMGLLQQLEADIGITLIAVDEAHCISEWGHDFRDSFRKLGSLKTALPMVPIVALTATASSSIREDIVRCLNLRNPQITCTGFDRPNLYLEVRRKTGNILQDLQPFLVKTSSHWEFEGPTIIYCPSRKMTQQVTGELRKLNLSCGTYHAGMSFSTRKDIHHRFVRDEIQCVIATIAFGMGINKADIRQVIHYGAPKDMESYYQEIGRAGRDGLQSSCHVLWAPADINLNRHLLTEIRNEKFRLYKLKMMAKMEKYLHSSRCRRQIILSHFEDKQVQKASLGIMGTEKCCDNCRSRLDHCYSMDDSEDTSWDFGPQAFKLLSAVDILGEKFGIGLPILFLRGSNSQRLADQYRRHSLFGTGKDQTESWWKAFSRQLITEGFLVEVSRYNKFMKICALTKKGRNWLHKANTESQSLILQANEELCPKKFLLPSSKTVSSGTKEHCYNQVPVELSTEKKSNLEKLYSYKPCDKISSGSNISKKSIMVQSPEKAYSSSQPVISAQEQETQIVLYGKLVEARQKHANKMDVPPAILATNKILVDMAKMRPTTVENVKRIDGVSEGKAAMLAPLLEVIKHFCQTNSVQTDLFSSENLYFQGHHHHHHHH
Outline: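 Untagged WRN (Sf9-expressed, TEV-cleaved) at 0.15 nM was preincubated 15 min at 25 °C with compound, then reacted 60 min at 25 °C with 5 μM ATP and 0.1 nM DNA duplex in Bicine pH 7.5, 1 mM MgCl2. ADP-Glo luminescence gave % inhibition; IC50 by four-parameter fit.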

Compound	IC50
Cc1scnc1-c1ccc(CC(=O)N(Cc2ccncc2)C2C=CS(=O)(=O)C2)c(F)c1 (stereo not shown) [I-320, N-(1,1-dioxo-2,3-dihydro-1lambda6-thiophen-3-yl)-2-[2-fluoro-4-(5-methyl-1,3-thiazol-4-yl)phenyl]-N-[(pyridin-4-yl)methyl]acetamide]	10 to 50 µM
O=C(Cc1ccc(-n2cccc2)cc1)N(Cc1ccc(B(O)O)cc1)C1C=CS(=O)(=O)C1 (stereo not shown) [I-321, (4-((2-(4-(1H-pyrrol-1-yl)phenyl)-N-(1,1-dioxido-2,3-dihydrothiophen-3-yl)acetamido)methyl)phenyl)boronic acid]	10 to 50 µM
CS(=O)(=O)c1ccccc1CN(C(=O)Cc1ccc(-n2cccc2)cc1)C1C=CS(=O)(=O)C1 (stereo not shown) [I-322, N-(1,1-dioxo-2,3-dihydro-1lambda6-thiophen-3-yl)-N-[(2-methanesulfonylphenyl)methyl]-2-[4-(1H-pyrrol-1-yl)phenyl]acetamide]	10 to 50 µM
O=C(Cc1ccc(-c2ccccc2)cc1)N(Cc1ccncc1)C1C=CS(=O)(=O)C1 (stereo not shown) [I-323, 2-{[1,1′-biphenyl]-4-yl}-N-(1,1-dioxo-2,3-dihydro-1lambda6-thiophen-3-yl)-N-[(pyridin-4-yl)methyl]acetamide]	10 to 50 µM
COCC(C(=O)N(Cc1ccnc(C(C)(C)O)c1)C1C=CS(=O)(=O)C1)n1cc(-c2ccccc2)cn1 (stereo not shown) [I-324, N-(1,1-dioxo-2,3-dihydro-1lambda6-thiophen-3-yl)-N-{[2-(2-hydroxypropan-2-yl)pyridin-4-yl]methyl}-3-methoxy-2-(4-phenyl-1H-pyrazol-1-yl)propanamide]	10 to 50 µM
O=C(Cn1cnc(-c2ccccc2)cc1=O)N(Cc1ccncc1)C1C=CS(=O)(=O)C1 (stereo not shown) [I-325, N-(1,1-dioxo-2,3-dihydro-1lambda6-thiophen-3-yl)-2-(6-oxo-4-phenyl-1,6-dihydropyrimidin-1-yl)-N-[(pyridin-4-yl)methyl]acetamide]	10 to 50 µM
O=C(Cn1nc(-c2ccccc2)ccc1=O)N(Cc1ccncc1)C1C=CS(=O)(=O)C1 (stereo not shown) [I-326, N-(1,1-dioxo-2,3-dihydro-1lambda6-thiophen-3-yl)-2-(6-oxo-3-phenyl-1,6-dihydropyridazin-1-yl)-N-[(pyridin-4-yl)methyl]acetamide]	10 to 50 µM
O=C(Cc1ccc(-n2cccc2)c(F)c1)N(Cc1ccncc1)C1C=CS(=O)(=O)C1 (stereo not shown) [I-327, N-(1,1-dioxo-2,3-dihydro-1lambda6-thiophen-3-yl)-2-[3-fluoro-4-(1H-pyrrol-1-yl)phenyl]-N-[(pyridin-4-yl)methyl]acetamide]	10 to 50 µM
O=C(C(c1ccc(-c2ccc(F)cc2)cc1)N1CCCC1=O)N(Cc1ccncc1)C1C=CS(=O)(=O)C1 (stereo not shown) [I-328, N-(1,1-dioxo-2,3-dihydro-1lambda6-thiophen-3-yl)-2-{4′-fluoro-[1,1′-biphenyl]-4-yl}-2-(2-oxopyrrolidin-1-yl)-N-[(pyridin-4-yl)methyl]acetamide]	10 to 50 µM
O=C(Cc1ccc(OC(F)F)cc1)N(Cc1ccncc1)C1C=CS(=O)(=O)C1 (stereo not shown) [I-331, 2-[4-(difluoromethoxy)phenyl]-N-(1,1-dioxo-2,3-dihydro-1lambda6-thiophen-3-yl)-N-[(pyridin-4-yl)methyl]acetamide]	10 to 50 µM
Cc1cccc(-c2nc(CC(=O)N(Cc3ccncc3)C3C=CS(=O)(=O)C3)cs2)c1 (stereo not shown) [I-333, N-(1,1-dioxo-2,3-dihydro-1lambda6-thiophen-3-yl)-2-[2-(3-methylphenyl)-1,3-thiazol-4-yl]-N-[(pyridin-4-yl)methyl]acetamide]	> 50 µM
O=C(Cc1ccc(-c2ccc(F)cc2C(F)F)cc1)N(Cc1ccncc1)C1C=CS(=O)(=O)C1 (stereo not shown) [I-334, 2-[2′-(difluoromethyl)-4′-fluoro-[1,1′-biphenyl]-4-yl]-N-(1,1-dioxo-2,3-dihydro-1lambda6-thiophen-3-yl)-N-[(pyridin-4-yl)methyl]acetamide]	10 to 50 µM
Cc1nc(CN(C(=O)Cc2ccc(-n3cccc3)cc2)C2C=CS(=O)(=O)C2)cs1 (stereo not shown) [I-335, N-(1,1-dioxo-2,3-dihydro-1lambda6-thiophen-3-yl)-N-[(2-methyl-1,3-thiazol-4-yl)methyl]-2-[4-(1H-pyrrol-1-yl)phenyl]acetamide]	10 to 50 µM
